What was measured:
[1] = tested on: mammary carcinogenesis induced by DMBA; assay: DMBA-induced mammary carcinogenesis, Morinda citrifolia/MSM combination (Example Five); type: in vivo, female SD rats
Text: In research supporting the present invention, the cancer preventive effects of Morinda citrifolia, MSM, and their combination at the initiation stage of multiple stage chemical carcinogenesis was investigated on a mammary breast carcinogenic animal model induced by DMBA in female SD rats. In the experiment, seventy-five female SD rats were divided into five groups: age-matched control, DMBA, 5% Morinda citrifolia+DMBA, 5% MSM+DMBA, and 5% Morinda citrifolia+5% MSM+DMBA groups. The experiment was started at the 35th postnatal day with water being given to the age-matched control group and the DMBA group, while 5% Morinda citrifolia, 5% MSM, and 5% Morinda citrifolia+5% MSM was supplied to the Morinda citrifolia, MSM, and Morinda citrifolia+MSM+DMBA groups. DMBA (25 mg/kg) was administered by mouth at the 50th postnatal day in the DMBA, Morinda citrifolia+DMBA, MSM+DMBA, and Morinda citrifolia+MSM+DMBA groups. Morinda citrifolia, MSM, Morinda citrifolia+MSM were continuously supplied for an additional 90 days after DMBA administration. All animals were sacrificed at the 9th month after DMBA treatment to examine the pathological changes in the mammary glands by light microscopy. […] Therefore, this synergistic combination regimen may contribute to human breast cancer prevention at the initiation stage of carcinogenesis. […]

[2] = tested on: mammary gland tumorigenesis induced by estrogen; assay: E2-induced mammary tumors (Example Four); type: in vivo, female ACI rats
Text: FIG. 2 is a graphical representation of the preventative effects of Morinda citrifolia-containing compounds on mammary gland tumorigenesis induced by estrogen in female ACI rats in accordance with the present invention.
Sixty five-week old female rats were divided into four groups of fifteen rats each and placed on regular diets. Another eight female rats served as age-matched controls. One group of experimental rats was given 5% placebo in drinking water, the second experimental group was given 5% Morinda citrifolia juice in drinking water, the third experimental group was given 5% Methylsulfonylmethane (“MSM”) in drinking water, and the fourth experimental group was given a combination of 5% Morinda citrifolia juice and 5% MSM in drinking water. Two weeks later, all animals were implanted subcutaneously with a 25 mg pellet containing 22.5 mg of 17β-estradiol (E2) mixed with 2.5 mg cholesterol. Each experimental group was provided with its respective formulation for ninety days following estrogen (E2) implantation. The age-matched control animals received a 25 mg cholesterol pellet implant.
All rats with an E2 implant in the placebo group had mammary gland tumors. One hundred percent (100%) of the rats in this group had three to seven tumors. Seventy-one percent (71%) of the rats in the Morinda citrifolia group had two to five tumors. Fifty-seven percent (57%) of the rats in the MSM group had one to four tumors. Forty-three percent (43%) of the rats in the combination group had zero to three tumors.
The average tumor area in the placebo group, Morinda citrifolia group, MSM group, and combination group at 180 days after E2 implantation were 17, 12, 10 and 6 mm^2, respectively. The survival rates of the control, placebo, Morinda citrifolia, MSM and combination groups one hundred and sixty days after E2 implantation were 100%, 0%, 47%, 73%, and 87%, respectively. The survival rates of each group at one hundred eighty days after E2 implantation was 100%, 0%, 0%, 20% and 60%, respectively. At two hundred days, the survival rates of each group were 100%, 0%, 0%, 0%, and 27%, respectively.

[3] = 5% in drinking water from two weeks before to ninety days after E2 implantation

`CS(C)(=O)=O` [MSM, methylsulfonylmethane] was tested, and the mild hyperplasia ([1]; 5% each, sacrificed 9th month after DMBA) was 75%, the “benign tumor or carcinoma in mammary glands by light microscopy” value ([1]; 5% from 35th postnatal day until 90 days after DMBA 25 mg/kg by mouth, sacrificed 9th month) was “No benign tumor or carcinoma was observed” and the “number of tumors per rat” value [2, 3] was “one to four”. For the same compound, the “percent of the rats with mammary tumors” value [2, 3] was 57%, the body weight ([2]; 5% in drinking water, E2 implant) was “slight body weight loss” and the average tumor area ([2]; 180 days after E2 implantation) was 10 mm^2. The survival rate ([2]; one hundred and sixty days after E2 implantation) was 73%, the survival rate ([2]; one hundred eighty days after E2 implantation) was 20% and the survival rate ([2]; two hundred days after E2 implantation) was 0%.

From patent US20070259060A1, “Formulations and Methods for Treating Breast Cancer with Morinda Citrifolia and Methylsulfonymethane” (priority 2003, published 2007)
